Results reported in patent publication US20220401465A1, “USES OF NAD+ AND/OR NAD+ INHIBITORS AND/OR NAD+ AGONISTS AND COMBINATION PREPARATION THEREOF” (ShanghaiTech University, priority 2019, published 2022).

What was measured:
[1] = tested on: T cells in PBMC; experiment: CD69 expression on T cells after anti-CD3/CD28 activation of PBMC (flow cytometry); format: cell-based, human
Protocol: (§1) Human peripheral blood mononuclear cells (PBMC) were diluted 1:1 with fresh blood and normal saline (Meilun Biological MA0083) and then added flat to the upper layer of an equal volume of Histopaque®-1077 (Sigma10771) separation solution. The cells were centrifuged slowly for 30 min at 500 g at room temperature. After centrifugation, the white membrane layer between the plasma and the separation solution was imbibed and washed with normal saline. After repeated washing, the cells were resuspended with 10% FBS (Thermofisher 10099141C) RPMI (Corning10-040-CV) medium for later use.
(§2) The concentration of PBMC cells was adjusted to no more than 0.5 million/ml, and the final concentration of 1 μM FK866 (Selleck S2799), 100 μM NAD+ (Selleck S2518), or 1μM FK866, and 100 μM NAD+ were added respectively. The cells after drug addition were cultured in a cell incubator for 24 hours at 37° C., with 5% CO2.
Highly adsorbed 96-well plates were coated with CD28 (Biolegend 102112), and CD3 (Thermofisher 14-0037-82) antibodies at the final concentration of 0 or 3 μg/ml, the PBMC cells treated with the above different treatments were added to the well plates, respectively. After 24 h stimulation, the cells were collected for CD69 staining. […] After washing with Staining buffer, the cells were resuspended with staining buffer containing DAPI and then detected on BD LSRFortessa. […]

[2] = tested on: T cells in PBMC; experiment: Intracellular tyrosine phosphorylation after anti-CD3/CD28 activation of PBMC (WB, 4G10 antibody); format: cell-based, human; conditions: 1 μM FK866 24 h, then CD3/CD28 antibody stimulation 5 min, versus solvent
Protocol: as §1, §2
Highly adsorbed 96-well plates were coated with CD28 (Biolegend 102112), and CD3 (Thermofisher 14-0037-82) antibodies at the final concentration of 0 or 3 μg/ml, the PBMC cells treated with the above different treatments were added to the well plates, respectively. […] WB testing: after cell collection, the cells were lysed to extract proteins, which were then electrophoretically transferred and detected with 4G10 antibody (Millipore16-103) for anti-Phosphotyrosine testing. […]

[3] = tested on: K562-CD19-mCherry-luciferase cells; experiment: Subcutaneous K562-CD19-mCherry-luciferase solid tumor model in NSG mice, in vivo imaging and survival; conditions: NAM alone i.p. daily 100 μL at 1 g/ml in saline, versus saline, n=5
Protocol: In cells with K562-CD19-mCherry, as described previously, luciferase was then overexpressed through the lentiviral system. […] Since subcutaneously injected K562 cells also overexpressed Luciferase, intracellular fluorescence can be excited after intraperitoneal injection of the substrate luciferin (PerkinElmer 122799) in mice, and tumor growth in mice can be collected by in vivo imaging. Before CAR-T cells were injected into the tail vein of mice, the fluorescence signal intensity of mouse tumor cells was detected as the starting point, and then the fluorescence intensity of mouse tumor cells was detected every 7 days. For detection, the mice were intraperitoneally injected with 150 μL of D-luciferin potassium salt at a concentration of 10 mg/ml, and 10 minutes later, the fluorescence of tumor cells was detected using IVIS® LuminaIII small animal in vivo imaging system. The stronger the fluorescence, the more tumor cells and the faster the tumor growth.

SMILES | CD69 on the surface of T cells ([1]; PBMC, 1 μM FK866 24 h, then CD3/CD28 antibody stimulation 24 h, versus solvent) | T cell activation ability ([1]; concluded from CD69 and phosphorylation levels when NAD+ synthesis was inhibited) | intracellular phosphorylation levels (tyrosine) [2] | effect on the fluorescence intensity and tumor growth of tumor cells [3]
O=C(/C=C/c1cccnc1)NCCCCC1CCN(C(=O)c2ccccc2)CC1 [FK866] | significantly reduced | significantly decreased | significantly reduced | 
NC(=O)c1cccnc1 [Nicotinamide (NAM), Nicotinamide] |  |  |  | no significant effect
